From ChEMBL document CHEMBL4130451, “Design and Synthesis of N-Aryl Phenoxyethoxy Pyridinones as Highly Selective and CNS Penetrant mGlu3 NAMs” (ACS Med Chem Lett, 2017)
≈ marks a conversion by molar mass, not a printed value. Calls of active or inactive are those of the source. The rule behind the calls is not given here.

Columns and labels:
[1] = Brain to plasma partition coefficient, Kp of the compound in mouse; type: ADME
[2] = target: Metabotropic glutamate receptor 4 (Rattus norvegicus) (UniProt P31423); assay: Negative allosteric modulation of rat mGlu4 receptor expressed in HEK/GIRK cells assessed as inhibition of glutamate induced-calcium mobilization preincubated for 2.3 mins followed by glutamate addition measured for 2.6 mins by Fluo-4 AM dye based fluorescence assay; type: functional, cell-based
Chain of Metabotropic glutamate receptor 4 (Rattus norvegicus) (P31423 whole entry): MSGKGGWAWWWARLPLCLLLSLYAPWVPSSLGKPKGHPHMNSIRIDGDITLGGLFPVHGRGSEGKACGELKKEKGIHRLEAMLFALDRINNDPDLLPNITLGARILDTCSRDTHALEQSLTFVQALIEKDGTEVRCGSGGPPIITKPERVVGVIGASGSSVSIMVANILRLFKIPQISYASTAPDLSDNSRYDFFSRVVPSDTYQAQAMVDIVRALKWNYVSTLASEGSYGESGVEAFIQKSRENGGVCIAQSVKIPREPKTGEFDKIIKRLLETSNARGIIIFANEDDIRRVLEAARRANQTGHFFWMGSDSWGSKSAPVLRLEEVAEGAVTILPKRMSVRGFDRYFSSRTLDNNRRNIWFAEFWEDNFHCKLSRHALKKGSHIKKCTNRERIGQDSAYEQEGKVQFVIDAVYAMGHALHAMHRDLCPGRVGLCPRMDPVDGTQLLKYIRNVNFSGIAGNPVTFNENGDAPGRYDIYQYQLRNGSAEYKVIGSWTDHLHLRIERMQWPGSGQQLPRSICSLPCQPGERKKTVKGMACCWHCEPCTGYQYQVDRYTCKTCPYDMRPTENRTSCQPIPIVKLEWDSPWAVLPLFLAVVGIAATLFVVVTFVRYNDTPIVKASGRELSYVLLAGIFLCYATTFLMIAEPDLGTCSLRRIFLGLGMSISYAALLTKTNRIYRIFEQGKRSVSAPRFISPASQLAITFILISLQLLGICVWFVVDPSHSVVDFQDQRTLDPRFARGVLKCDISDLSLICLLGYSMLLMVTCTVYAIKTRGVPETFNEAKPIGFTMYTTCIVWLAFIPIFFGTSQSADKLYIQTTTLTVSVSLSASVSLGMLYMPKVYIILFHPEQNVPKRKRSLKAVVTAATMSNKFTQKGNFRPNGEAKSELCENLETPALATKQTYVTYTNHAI

[3] = Fraction unbound in mouse plasma at 5 uM after 4 hrs by equilibrium dialysis based LC/MS/MS analysis; type: ADME, cell-free
[4] = target: Kappa-type opioid receptor (Homo sapiens) (UniProt P41145); assay: Inhibition of human kappa opioid receptor at 10 uM relative to control
Chain of Kappa-type opioid receptor (Homo sapiens) (P41145 whole entry): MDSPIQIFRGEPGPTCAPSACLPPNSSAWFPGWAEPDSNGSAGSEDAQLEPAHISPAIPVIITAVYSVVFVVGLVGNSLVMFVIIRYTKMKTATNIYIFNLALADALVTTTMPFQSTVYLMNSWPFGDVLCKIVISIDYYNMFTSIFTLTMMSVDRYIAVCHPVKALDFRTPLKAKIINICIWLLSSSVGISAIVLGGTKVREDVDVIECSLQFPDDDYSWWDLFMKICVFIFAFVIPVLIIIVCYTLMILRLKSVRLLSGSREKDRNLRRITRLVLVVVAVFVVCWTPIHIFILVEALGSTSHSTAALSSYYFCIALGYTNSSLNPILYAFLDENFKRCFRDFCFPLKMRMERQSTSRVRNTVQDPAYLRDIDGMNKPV

[5] = target: Estrogen receptor (Homo sapiens) (UniProt P03372); assay: Inhibition of human ERalpha receptor at 10 uM relative to control
Rattus norvegicus [6] = organism: Rattus norvegicus; assay: Inhibition of rat N-type calcium channel […] at 10 uM relative to control
[7] = target: Platelet-activating factor receptor (Homo sapiens) (UniProt P25105); assay: Inhibition of human platelet activating factor receptor at 10 uM relative to control
Chain of Platelet-activating factor receptor (Homo sapiens) (P25105 whole entry): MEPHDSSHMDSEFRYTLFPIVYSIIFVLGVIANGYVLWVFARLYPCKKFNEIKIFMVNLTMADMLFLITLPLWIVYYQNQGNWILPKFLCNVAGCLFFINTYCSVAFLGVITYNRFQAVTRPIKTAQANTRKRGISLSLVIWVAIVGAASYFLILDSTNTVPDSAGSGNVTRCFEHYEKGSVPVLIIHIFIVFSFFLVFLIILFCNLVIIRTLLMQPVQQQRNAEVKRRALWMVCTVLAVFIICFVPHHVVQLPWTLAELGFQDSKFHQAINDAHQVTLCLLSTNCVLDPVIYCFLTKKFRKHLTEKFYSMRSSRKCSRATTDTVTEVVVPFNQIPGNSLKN

Homo sapiens [8] = organism: Homo sapiens; assay: Inhibition of human nicotinic acetylcholine receptor at 10 uM relative to control
Rattus norvegicus [9] = organism: Rattus norvegicus; assay: Inhibition of rat GABA receptor at 10 uM relative to control
[10] = Fraction unbound in rat plasma at 5 uM after 4 hrs by equilibrium dialysis based LC/MS/MS analysis; type: ADME, cell-free
[11] = target: Beta-2 adrenergic receptor (Homo sapiens) (UniProt P07550); assay: Inhibition of human adrenergic beta2 receptor at 10 uM relative to control
[12] = Kinetic solubility of the compound in PBS at pH 7.4; type: physicochemical; conditions: read-out: Kinetic_solubility
[13] = target: Muscarinic acetylcholine receptor M3 (Homo sapiens) (UniProt P20309); assay: Inhibition of human muscarinic M3 receptor at 10 uM relative to control
Chain of Muscarinic acetylcholine receptor M3 (Homo sapiens) (P20309 whole entry, looked up): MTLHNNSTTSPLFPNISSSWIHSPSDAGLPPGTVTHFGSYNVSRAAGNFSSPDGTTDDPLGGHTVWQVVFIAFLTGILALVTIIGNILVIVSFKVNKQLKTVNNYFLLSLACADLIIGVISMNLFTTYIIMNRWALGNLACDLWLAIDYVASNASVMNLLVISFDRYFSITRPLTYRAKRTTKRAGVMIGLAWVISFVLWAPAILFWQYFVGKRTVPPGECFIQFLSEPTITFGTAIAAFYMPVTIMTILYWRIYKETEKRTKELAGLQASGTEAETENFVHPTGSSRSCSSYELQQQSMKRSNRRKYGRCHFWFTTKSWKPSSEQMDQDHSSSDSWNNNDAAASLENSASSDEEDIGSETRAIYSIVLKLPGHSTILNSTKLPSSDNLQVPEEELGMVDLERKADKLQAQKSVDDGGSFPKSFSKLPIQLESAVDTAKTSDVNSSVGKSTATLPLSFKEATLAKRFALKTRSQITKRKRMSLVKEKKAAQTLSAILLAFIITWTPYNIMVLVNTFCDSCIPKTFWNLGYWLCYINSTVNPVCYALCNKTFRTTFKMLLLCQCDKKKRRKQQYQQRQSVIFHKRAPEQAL

[14] = target: Metabotropic glutamate receptor 5 (Rattus norvegicus, UniProt P31424); assay: Positive allosteric modulation of rat mGlu5 receptor expressed in HEK293A cells assessed as increase in glutamate induced-calcium mobilization preincubated for 2.3 mins followed by glutamate addition measured for 1.9 mins by Fluo-4 AM dye based fluorescence assay; type: functional, cell-based
Homo sapiens [15] = organism: Homo sapiens; assay: Inhibition of human dopamine D4.2 receptor at 10 uM relative to control
[16] = target: Neuropeptide Y receptor type 1 (Homo sapiens) (UniProt P25929); assay: Inhibition of human […] Y1 receptor at 10 uM relative to control
[17] = target: T1, Glutamate NMDA receptor (Rattus norvegicus) (UniProt P35439+Q00959+Q00960+Q00961+Q62645+Q8VHN2+Q9R1M7); assay: Inhibition of rat glutamate NMDA receptor glycine binding site at 10 uM relative to control; type: protein-complex assay
[18] = target: Melatonin receptor type 1A (Homo sapiens) (UniProt P48039); assay: Inhibition of human MT1 receptor at 10 uM relative to control
Chain of Melatonin receptor type 1A (Homo sapiens) (P48039 whole entry): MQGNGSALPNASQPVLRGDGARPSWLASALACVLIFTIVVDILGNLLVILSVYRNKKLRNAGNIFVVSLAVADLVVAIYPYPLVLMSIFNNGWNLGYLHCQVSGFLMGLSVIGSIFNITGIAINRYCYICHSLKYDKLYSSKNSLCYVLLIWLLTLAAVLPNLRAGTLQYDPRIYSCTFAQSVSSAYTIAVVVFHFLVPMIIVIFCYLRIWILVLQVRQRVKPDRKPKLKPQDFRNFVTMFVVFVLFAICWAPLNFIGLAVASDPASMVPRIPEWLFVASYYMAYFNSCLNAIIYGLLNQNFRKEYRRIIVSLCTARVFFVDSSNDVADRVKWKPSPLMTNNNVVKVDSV

[19] = target: Histamine H1 receptor (Homo sapiens) (UniProt P35367); assay: Inhibition of human histamine H1 receptor at 10 uM relative to control
Chain of Histamine H1 receptor (Homo sapiens) (P35367 whole entry): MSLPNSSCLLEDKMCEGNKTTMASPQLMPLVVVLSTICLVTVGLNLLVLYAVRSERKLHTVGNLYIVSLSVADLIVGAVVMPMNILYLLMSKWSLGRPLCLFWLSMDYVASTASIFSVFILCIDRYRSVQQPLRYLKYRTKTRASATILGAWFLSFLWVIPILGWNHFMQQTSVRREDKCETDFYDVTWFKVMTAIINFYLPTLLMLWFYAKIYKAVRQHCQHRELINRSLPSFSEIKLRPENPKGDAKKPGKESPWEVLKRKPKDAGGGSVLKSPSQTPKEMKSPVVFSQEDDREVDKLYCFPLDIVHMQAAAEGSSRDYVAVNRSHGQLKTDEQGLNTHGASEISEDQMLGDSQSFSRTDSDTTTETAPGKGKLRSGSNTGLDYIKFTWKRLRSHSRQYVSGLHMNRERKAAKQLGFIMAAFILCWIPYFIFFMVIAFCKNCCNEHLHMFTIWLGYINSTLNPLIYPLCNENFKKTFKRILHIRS

Rattus norvegicus [20] = organism: Rattus norvegicus; assay: Inhibition of central rat I2 receptor imidazoline binding site at 10 uM relative to control
[21] = target: Metabotropic glutamate receptor 3 (Rattus norvegicus, UniProt P31422); assay: Negative allosteric modulation of rat mGlu3 receptor expressed in TREX cells coexpressing Galpha15 assessed as inhibition of glutamate induced-calcium mobilization preincubated for 2.3 mins followed by glutamate addition measured for 2.6 mins by Fluo-4 AM dye based fluorescence assay; type: functional, cell-based
Chain of Metabotropic glutamate receptor 3 (P31422 whole entry): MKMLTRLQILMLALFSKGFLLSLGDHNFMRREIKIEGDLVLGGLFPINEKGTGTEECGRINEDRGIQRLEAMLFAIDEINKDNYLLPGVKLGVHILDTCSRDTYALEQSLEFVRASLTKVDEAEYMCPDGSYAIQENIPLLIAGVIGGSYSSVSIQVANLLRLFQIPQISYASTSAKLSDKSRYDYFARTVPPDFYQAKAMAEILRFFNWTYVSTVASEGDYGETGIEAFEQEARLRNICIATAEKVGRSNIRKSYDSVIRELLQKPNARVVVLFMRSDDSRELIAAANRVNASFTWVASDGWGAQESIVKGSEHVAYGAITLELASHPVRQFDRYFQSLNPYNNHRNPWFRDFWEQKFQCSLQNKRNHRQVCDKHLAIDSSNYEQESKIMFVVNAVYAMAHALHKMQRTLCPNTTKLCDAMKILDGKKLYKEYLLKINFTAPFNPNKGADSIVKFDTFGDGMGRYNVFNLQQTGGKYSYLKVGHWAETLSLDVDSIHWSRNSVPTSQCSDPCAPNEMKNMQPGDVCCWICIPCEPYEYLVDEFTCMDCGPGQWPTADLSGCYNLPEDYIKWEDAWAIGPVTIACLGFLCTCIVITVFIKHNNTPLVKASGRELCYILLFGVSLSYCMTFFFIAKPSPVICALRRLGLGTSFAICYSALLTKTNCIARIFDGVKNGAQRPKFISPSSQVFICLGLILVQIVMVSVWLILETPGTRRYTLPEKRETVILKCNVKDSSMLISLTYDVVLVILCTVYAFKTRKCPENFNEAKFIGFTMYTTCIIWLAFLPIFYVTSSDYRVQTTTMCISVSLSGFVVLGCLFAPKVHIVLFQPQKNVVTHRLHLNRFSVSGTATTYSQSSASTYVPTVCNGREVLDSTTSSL

[22] = target: T1, Glutamate NMDA receptor (Rattus norvegicus); assay: Inhibition of rat glutamate NMDA receptor agonist binding site at 10 uM relative to control; type: protein-complex assay
[23] = target: Androgen receptor (Rattus norvegicus) (UniProt P15207); assay: Inhibition of rat androgen receptor at 10 uM relative to control
Chain of Androgen receptor (Rattus norvegicus) (P15207 whole entry S389L): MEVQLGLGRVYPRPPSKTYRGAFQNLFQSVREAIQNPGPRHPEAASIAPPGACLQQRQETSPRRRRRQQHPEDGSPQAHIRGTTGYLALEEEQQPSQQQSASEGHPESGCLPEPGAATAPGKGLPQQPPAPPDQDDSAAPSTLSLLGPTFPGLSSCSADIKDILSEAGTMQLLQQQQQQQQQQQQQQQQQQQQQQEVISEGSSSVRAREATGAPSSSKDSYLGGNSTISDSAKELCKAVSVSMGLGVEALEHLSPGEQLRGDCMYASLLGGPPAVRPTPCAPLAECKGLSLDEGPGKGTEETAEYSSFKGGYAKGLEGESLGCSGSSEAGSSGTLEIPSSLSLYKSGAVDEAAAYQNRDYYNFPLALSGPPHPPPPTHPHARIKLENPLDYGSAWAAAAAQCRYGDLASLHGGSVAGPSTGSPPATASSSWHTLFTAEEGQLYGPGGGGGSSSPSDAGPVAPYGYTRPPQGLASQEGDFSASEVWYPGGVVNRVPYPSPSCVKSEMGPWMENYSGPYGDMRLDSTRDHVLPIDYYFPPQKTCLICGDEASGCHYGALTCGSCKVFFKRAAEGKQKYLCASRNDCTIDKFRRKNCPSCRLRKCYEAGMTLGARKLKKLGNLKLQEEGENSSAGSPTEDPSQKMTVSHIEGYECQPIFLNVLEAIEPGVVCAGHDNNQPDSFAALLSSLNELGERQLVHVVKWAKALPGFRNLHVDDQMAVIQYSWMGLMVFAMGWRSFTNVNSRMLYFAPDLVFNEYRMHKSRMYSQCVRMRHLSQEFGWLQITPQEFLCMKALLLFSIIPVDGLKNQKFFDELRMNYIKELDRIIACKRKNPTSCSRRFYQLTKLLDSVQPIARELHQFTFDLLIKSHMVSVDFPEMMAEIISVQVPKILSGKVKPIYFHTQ

[24] = target: B1 bradykinin receptor (Homo sapiens) (UniProt P46663); assay: Inhibition of human bradykinin B1 receptor at 10 uM relative to control
[25] = target: Metabotropic glutamate receptor 3 (Rattus norvegicus) (UniProt P31422); assay: Negative allosteric modulation of rat mGlu3 receptor expressed in TREX cells coexpressing Galpha15 assessed as inhibition of glutamate induced-calcium mobilization by measuring minimum glutamate response preincubated for 2.3 mins followed by glutamate addition measured for 2.6 mins by Fluo-4 AM dye based fluorescence assay relative to glutamate; type: functional, cell-based
Mus musculus = assay: Antidepressant activity in CD-1 mouse assessed as reduction in immobility time at 3 mg/kg administered ip 15 mins prior to test measured for 6 mins by tail suspension test; type: functional, organism-based
[26] = target: 5-hydroxytryptamine receptor 1A (Homo sapiens) (UniProt P08908); assay: Inhibition of human 5-HT1A receptor at 10 uM relative to control
hERG (KCNH2) = hERG (KCNH2) (Homo sapiens, UniProt Q12809); assay: Inhibition of human ERG at 10 uM relative to control
[27] = target: Metabotropic glutamate receptor 6 (Homo sapiens) (UniProt O15303); assay: Negative allosteric modulation of human mGlu6 receptor expressed in HEK/GIRK cells assessed as inhibition of glutamate induced-calcium mobilization preincubated for 2.3 mins followed by glutamate addition measured for 2.6 mins by Fluo-4 AM dye based fluorescence assay; type: functional, cell-based
[28] = target: D(2) dopamine receptor (Homo sapiens) (UniProt P14416); assay: Inhibition of human dopamine D2S receptor at 10 uM relative to control
[29] = Drug uptake in Harlan CD-1 mouse brain at 3 mg/kg, ip by LC/MS-MS analysis; type: ADME, organism-based; conditions: in vivo, read-out: Drug uptake
[30] = Unbound brain to plasma concentration ratio in mouse; type: ADME; conditions: read-out: K(p,uu,brain)
[31] = target: Adenosine receptor A2a (Homo sapiens) (UniProt P29274); assay: Inhibition of human adenosine A2a receptor at 10 uM relative to control
[32] = Brain to plasma partition coefficient, Kp of the compound in rat; type: ADME
[33] = target: Endothelin receptor type B (Homo sapiens) (UniProt P24530); assay: Inhibition of human endothelin B receptor at 10 uM relative to control
Rattus norvegicus [34] = organism: Rattus norvegicus; assay: Inhibition of rat P2Y receptor at 10 uM relative to control
[35] = target: Alpha-2A adrenergic receptor (Homo sapiens) (UniProt P08913); assay: Inhibition of human adrenergic alpha 2A receptor at 10 uM relative to control
[36] = target: Sigma non-opioid intracellular receptor 1 (Homo sapiens) (UniProt Q99720); assay: Inhibition of human sigma 1 receptor at 10 uM relative to control
[37] = Unbound brain-to-plasma concentration ratio in rat; type: ADME; conditions: read-out: K(p,uu,brain)
[38] = target: D(1A) dopamine receptor (Homo sapiens) (UniProt P21728); assay: Inhibition of human dopamine D1 receptor at 10 uM relative to control
[39] = target: B2 bradykinin receptor (Homo sapiens) (UniProt P30411); assay: Inhibition of human bradykinin B2 receptor at 10 uM relative to control
[40] = target: Histamine H2 receptor (Homo sapiens) (UniProt P25021); assay: Inhibition of human histamine H2 receptor at 10 uM relative to control

Q: Which results are given for `C[C@@H](COc1ccn(-c2ccc(F)cc2)c(=O)c1)Oc1ccccc1`?
A: Kp [1]: 1.17; inhibition [2]: inactive; fu [3]: 0.18; inhibition [4]: > 50%; inhibition [5]: > 50%; inhibition (Rattus norvegicus [6]): > 50%; inhibition [7]: > 50%; inhibition (Homo sapiens [8]): > 50%; inhibition (Rattus norvegicus [9]): > 50%; fraction unbound at 4 h, 5 µM [10]: 0.18; inhibition [11]: > 50%; solubility kinetic [12]: 98 µM (≈ 33.3 µg/mL); inhibition [13]: > 50%; EC50 [14]: > 30 µM; inhibition (Homo sapiens [15]): > 50%; inhibition [16]: > 50%; inhibition [17]: > 50%; inhibition [18]: > 50%; inhibition [19]: > 50%; inhibition (Rattus norvegicus [20]): > 50%; IC50 [21]: 0.245 µM; inhibition [22]: > 50%; inhibition [23]: > 50%; inhibition [24]: > 50%; Emin [25]: 3.33%; Activity (Mus musculus): Active; inhibition [26]: > 50%; inhibition at 10 µM (hERG (KCNH2)): > 50%; inhibition [27]: inactive; inhibition [28]: > 50%; concentration [29]: 1.2 µM; Kp uu [30]: 0.26; inhibition [31]: > 50%; Kp [32]: 1.15; inhibition [33]: > 50%; inhibition (Rattus norvegicus [34]): > 50%; inhibition [35]: > 50%; inhibition [36]: > 50%; Kp uu [37]: 0.4; inhibition [38]: > 50%; inhibition [39]: > 50%; inhibition [40]: > 50%
